The target in experiment [1] is human recombinant DPP-4 (Homo sapiens, UniProt P27487). Briefly: biochemical. The settings on record: Inhibition of DPP-4 IC50, mean of three experiments.
In experiment [2] the test system is murine model of T2DM. The settings on record: oral, high fat diet + streptozotocin T2DM ref 35; cited from earlier work.

Several values for one entry are separate records, joined by “and”; a condition that tells them apart may be missing. Equal entries are not always repeated.

Chain of human recombinant DPP-4 (P27487 whole entry): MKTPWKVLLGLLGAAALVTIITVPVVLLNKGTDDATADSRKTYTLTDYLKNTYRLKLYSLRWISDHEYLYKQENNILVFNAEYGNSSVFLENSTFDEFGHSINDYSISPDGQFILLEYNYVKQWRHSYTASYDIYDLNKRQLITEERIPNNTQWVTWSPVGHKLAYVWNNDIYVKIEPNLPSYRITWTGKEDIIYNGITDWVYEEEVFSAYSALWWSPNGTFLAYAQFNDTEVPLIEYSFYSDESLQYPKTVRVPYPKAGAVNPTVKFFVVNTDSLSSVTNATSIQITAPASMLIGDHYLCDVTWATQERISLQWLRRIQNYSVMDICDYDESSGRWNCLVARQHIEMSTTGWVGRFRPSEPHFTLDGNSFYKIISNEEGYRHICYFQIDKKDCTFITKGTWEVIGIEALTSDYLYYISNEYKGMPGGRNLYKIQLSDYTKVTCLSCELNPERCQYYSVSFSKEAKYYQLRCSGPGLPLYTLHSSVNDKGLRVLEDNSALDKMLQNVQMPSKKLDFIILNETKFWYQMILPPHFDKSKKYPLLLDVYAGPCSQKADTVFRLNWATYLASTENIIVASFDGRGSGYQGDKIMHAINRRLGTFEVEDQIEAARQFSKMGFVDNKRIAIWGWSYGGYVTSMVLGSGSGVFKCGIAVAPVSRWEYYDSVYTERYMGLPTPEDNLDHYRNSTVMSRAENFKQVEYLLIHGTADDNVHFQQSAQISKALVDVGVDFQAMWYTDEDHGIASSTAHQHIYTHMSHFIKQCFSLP

By IC50 is commonly meant the concentration that gives 50% inhibition. In the case of `NC(CC(=O)NNCc1ccc(F)c(F)c1)Cc1cc(F)c(F)cc1F` (stereo not shown) [LASSBio-2127 (13), 3-amino-N'-(3,4-difluorobenzyl)-4-(2,4,5-trifluorophenyl)butanehydrazide], the IC50 in experiment [1] was 2.9 µM and 2.93 µM.

Turning to `N[C@H](CC(=O)N/N=C/c1ccc(F)c(F)c1)Cc1cc(F)c(F)cc1F` [LASSBio-2130 (6-S), (S,E)-3-amino-N'-(3,4-difluorobenzylidene)-4-(2,4,5-trifluorophenyl)butanehydrazide], in experiment [1], the IC50 was 44.7 µM.

Take `N[C@@H](CC(=O)N1CCn2c(nnc2C(F)(F)F)C1)Cc1cc(F)c(F)cc1F` [Sitagliptin (1), sitagliptin]: in experiment [2], the antihyperglycemic effect entry is “showed antihyperglycemic effects”; the “effect on cardiac and renal dysfunction” value is “improved cardiac and renal dysfunction”.

These data come from PMC10882265 (RSC Advances, 2024).
